Common to all, as to test: biochemical
One assay addresses FES (Homo sapiens, UniProt P07332).
The target of another assay is T1, GAK (Homo sapiens, UniProt O14976).
T1 sequence (O14976 1-1311): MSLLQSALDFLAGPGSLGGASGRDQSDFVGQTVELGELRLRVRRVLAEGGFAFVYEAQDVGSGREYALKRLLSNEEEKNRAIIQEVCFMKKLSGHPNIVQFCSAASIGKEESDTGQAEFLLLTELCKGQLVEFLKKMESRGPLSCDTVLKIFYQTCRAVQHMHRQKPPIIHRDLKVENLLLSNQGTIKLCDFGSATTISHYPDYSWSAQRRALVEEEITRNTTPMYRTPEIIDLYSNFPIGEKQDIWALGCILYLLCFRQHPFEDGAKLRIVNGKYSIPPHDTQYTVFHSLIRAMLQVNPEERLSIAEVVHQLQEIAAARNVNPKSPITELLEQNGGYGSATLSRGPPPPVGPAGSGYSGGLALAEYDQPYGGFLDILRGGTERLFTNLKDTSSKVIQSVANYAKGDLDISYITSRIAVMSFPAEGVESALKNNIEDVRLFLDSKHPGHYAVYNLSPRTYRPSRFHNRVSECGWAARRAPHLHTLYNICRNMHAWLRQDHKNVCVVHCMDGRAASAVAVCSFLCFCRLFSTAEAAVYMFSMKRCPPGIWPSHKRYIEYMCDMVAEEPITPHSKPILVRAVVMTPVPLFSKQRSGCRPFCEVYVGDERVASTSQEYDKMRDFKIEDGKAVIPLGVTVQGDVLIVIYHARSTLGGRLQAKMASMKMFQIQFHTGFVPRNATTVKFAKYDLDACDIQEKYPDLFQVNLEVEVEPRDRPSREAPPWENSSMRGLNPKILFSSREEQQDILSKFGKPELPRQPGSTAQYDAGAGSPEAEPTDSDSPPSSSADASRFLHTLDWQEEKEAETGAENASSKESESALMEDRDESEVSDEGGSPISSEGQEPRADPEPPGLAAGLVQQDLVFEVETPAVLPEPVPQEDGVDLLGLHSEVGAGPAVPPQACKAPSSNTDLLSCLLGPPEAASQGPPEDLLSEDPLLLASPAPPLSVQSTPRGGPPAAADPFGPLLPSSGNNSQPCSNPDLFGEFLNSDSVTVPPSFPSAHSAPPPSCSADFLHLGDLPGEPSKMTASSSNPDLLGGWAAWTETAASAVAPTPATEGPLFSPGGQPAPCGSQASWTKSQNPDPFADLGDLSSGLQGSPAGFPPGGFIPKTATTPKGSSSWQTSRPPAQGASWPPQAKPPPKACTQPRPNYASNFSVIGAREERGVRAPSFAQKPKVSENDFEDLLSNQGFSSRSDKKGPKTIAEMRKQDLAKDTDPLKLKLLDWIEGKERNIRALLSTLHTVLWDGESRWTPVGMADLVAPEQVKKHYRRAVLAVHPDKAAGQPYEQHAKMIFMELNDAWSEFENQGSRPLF

The target of the next assay is T2, MAP2K4 (Homo sapiens, UniProt P45985).
T2 sequence (P45985 1-399): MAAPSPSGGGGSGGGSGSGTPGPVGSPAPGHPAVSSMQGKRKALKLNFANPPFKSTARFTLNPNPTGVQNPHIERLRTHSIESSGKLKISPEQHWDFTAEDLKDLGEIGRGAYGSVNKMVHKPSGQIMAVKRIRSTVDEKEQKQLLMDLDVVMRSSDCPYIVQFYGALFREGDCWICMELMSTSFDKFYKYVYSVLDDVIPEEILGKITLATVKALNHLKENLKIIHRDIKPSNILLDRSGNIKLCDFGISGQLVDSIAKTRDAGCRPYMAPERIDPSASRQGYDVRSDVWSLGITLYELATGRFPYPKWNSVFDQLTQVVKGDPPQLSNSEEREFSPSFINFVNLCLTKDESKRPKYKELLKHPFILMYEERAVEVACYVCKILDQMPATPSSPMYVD

For a further assay, the target named is T3, MAP2K7 (Homo sapiens, UniProt O14733).
T3 sequence (O14733 1-419): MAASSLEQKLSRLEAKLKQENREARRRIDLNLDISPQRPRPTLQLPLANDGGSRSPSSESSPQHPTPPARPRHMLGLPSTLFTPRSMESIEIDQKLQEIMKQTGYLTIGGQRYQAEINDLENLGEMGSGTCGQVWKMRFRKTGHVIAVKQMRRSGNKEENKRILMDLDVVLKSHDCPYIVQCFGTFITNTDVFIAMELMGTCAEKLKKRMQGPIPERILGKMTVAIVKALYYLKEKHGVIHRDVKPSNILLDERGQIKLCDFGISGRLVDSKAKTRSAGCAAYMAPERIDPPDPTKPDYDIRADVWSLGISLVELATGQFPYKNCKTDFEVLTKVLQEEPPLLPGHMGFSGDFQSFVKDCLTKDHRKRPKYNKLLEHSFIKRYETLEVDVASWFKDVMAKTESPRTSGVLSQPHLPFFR

The target in a further assay is SRC (Homo sapiens, UniProt P12931).
Chain of SRC (P12931 whole entry): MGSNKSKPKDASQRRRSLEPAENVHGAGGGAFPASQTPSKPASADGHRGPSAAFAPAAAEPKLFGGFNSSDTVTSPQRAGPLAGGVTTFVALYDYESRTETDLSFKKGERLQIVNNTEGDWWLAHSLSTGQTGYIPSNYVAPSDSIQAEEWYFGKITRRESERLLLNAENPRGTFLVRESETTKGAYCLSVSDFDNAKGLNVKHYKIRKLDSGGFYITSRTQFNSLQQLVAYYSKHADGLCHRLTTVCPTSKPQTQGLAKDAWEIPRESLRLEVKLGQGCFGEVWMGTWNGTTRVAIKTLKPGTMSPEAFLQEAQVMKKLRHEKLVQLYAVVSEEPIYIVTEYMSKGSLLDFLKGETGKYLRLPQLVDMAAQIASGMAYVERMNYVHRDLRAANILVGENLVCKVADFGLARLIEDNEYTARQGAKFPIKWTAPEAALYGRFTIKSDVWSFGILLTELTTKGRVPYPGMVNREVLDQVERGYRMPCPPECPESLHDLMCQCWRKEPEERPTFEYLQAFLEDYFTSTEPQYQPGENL

Like-named read-outs stand apart in the source and are kept apart here.

Chain of FES (P07332 whole entry): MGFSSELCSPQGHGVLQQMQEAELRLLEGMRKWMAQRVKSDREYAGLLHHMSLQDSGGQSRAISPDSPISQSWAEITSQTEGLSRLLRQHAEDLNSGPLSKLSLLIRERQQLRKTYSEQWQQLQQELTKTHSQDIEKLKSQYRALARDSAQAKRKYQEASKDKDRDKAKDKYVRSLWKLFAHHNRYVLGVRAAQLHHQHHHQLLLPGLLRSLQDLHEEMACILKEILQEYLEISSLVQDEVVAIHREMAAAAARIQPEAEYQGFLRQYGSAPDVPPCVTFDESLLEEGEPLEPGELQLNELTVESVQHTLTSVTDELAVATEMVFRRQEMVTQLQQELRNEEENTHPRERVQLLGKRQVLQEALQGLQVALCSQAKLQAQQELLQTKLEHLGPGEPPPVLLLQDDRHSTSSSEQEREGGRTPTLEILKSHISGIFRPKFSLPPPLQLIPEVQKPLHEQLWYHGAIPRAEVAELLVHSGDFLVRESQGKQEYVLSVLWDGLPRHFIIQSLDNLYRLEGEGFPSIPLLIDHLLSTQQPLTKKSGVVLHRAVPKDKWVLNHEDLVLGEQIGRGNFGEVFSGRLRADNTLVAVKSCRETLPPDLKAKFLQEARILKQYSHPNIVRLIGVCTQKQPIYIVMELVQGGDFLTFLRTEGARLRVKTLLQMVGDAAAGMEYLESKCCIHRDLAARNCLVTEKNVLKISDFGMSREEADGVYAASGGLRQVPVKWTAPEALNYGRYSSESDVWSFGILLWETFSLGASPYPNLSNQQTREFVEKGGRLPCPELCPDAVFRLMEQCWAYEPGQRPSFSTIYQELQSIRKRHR

As to `CNc1ncc2cc(-c3cc(C(F)(F)F)ccc3Cl)c(=O)n(CCCCN)c2n1` [compound 9, 8-(4-Aminobutyl)-6-(2-chloro-5-(trifluoromethyl)phenyl)-2-(methylamino)pyrido[2,3-d]pyrimidin-7(8H)-one], the ΔTm at 10 µM came out at 1.4 °C on FES (read-out: dTm 9); 1 °C on GAK (read-out: dTm 9); 2.3 °C on MAP2K4 (read-out: dTm 9); 0.4 °C on MAP2K7 (read-out: dTm 9); 0 °C at SRC (read-out: dTm 9).

`CNc1ncc2cc(-c3cc(Cl)ccc3Cl)c(=O)n(CCCCN)c2n1` [compound 8, 8-(4-Aminobutyl)-6-(2,5-dichlorophenyl)-2-(methylamino)pyrido[2,3-d]pyrimidin-7(8H)-one]: the ΔTm at 10 µM on FES (read-out: dTm 8) was 2.5 °C; on GAK (read-out: dTm 8), 3.7 °C; on MAP2K4 (read-out: dTm 8), 2.7 °C; at MAP2K7 (read-out: dTm 8) it was 0.6 °C; at SRC (read-out: dTm 8) it was 0.6 °C.

Consider `CNc1ncc2cc(-c3cc(Br)ccc3Br)c(=O)n(CCCCN)c2n1` [compound 11, 8-(4-Aminobutyl)-6-(2,5-dibromophenyl)-2-(methylamino)pyrido[2,3-d]pyrimidin-7(8H)-one], for which the ΔTm at 10 µM at FES (read-out: dTm 11) was 2.8 °C; on GAK (read-out: dTm 11), 3.3 °C; at MAP2K4 (read-out: dTm 11), 3 °C; on MAP2K7 (read-out: dTm 11), 0.5 °C; on SRC (read-out: dTm 11), 0.4 °C.

With `CNc1ncc2cc(-c3cc(F)c(-c4cccc(C)n4)cc3F)c(=O)n(CCCCN)c2n1` [compound 12, 8-(4-Aminobutyl)-6-(2,5-difluoro-4-(6-methylpyridin-2-yl)phenyl)-2-(methylamino)pyrido[2,3-d]pyrimidin-7(8H)-one], the ΔTm at 10 µM on FES (read-out: dTm 12) turned out to be 5.4 °C; on GAK (read-out: dTm 12), 7.6 °C; on MAP2K4 (read-out: dTm 12), 5.4 °C; at MAP2K7 (read-out: dTm 12), 1.7 °C; at SRC (read-out: dTm 12), 1.2 °C.

Take `CNc1ncc2cc(-c3cc(Cl)ccc3Br)c(=O)n(CCCCN)c2n1` [compound 10, 8-(4-Aminobutyl)-6-(2-bromo-5-chlorophenyl)-2-(methylamino)pyrido[2,3-d]pyrimidin-7(8H)-one]: the ΔTm at 10 µM at FES (read-out: dTm 10) amounted to 2.5 °C; on GAK (read-out: dTm 10), 3.3 °C; at MAP2K4 (read-out: dTm 10) it was 3 °C; at MAP2K7 (read-out: dTm 10), 0.4 °C; on SRC (read-out: dTm 10), 0.6 °C.

For the origin of these results see paper doi:10.1101/2023.03.24.534094v2 (biorxiv, 2023).
